Among the data in patent US20230265151A1, “GIP/GLP1 CO-AGONIST COMPOUNDS” (priority 2020, published 2023) are EC50, Emax and Ki values, retold here.

SMILES strings stand for the structures. Like-named read-outs stand apart in the source and are kept apart here.

By EC50 is commonly meant the midpoint of the concentration-response curve. Usually Emax stands for the size of the effect at its maximum, as opposed to the concentration needed. By Ki is commonly meant the dissociation constant of the complex between target and ligand, obtained from inhibition or displacement.

One experiment has as its target hGLP-1R (Homo sapiens, UniProt P43220). Nature of the experiment: Functional cAMP formation (HTRF) in HEK-293 clonal cells expressing hGLP-1R, 0.1% bovine casein, without or with 1.0% human serum albumin. The experiment is classed as cell-based. To be noted: 37° C.; for EC50: read-out: hGLP-1R EC50, nM (SEM, n); for Emax: HEK293, cAMP, percent of maximal response to GLP-1(7-36)NH2, read-out: hGLP-1R Emax, % ± SEM. Also noted: expressed in transfected cells. A digest of the protocol: (§1)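 Cells were stimulated with peptide for 30 min at 37° C, then lysed in buffer carrying cAMP-d2 and anti-cAMP Eu3+-cryptate for a competitive HTRF read after at least 60 min at room temperature. The 665/620 nm ratio was converted to nM cAMP against a standard curve.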

For another experiment, the target named is T1, hGCGR (Homo sapiens, UniProt P47871).
T1 construct: expressed in transfected cells
The experiment can be described thus: Functional cAMP formation (HTRF) in HEK-293 clonal cells expressing hGCGR, 0.1% bovine casein, without or with 1.0% human serum albumin. It counts as cell-based. To be noted: read-out: hGCGR EC50, nM (SEM, n). A digest of the protocol:
as §1
For orientation: Cyclic AMP is a second messenger, typically raised through Gs and lowered through Gi signalling.

Another experiment has as its target T2, hGIPR (Homo sapiens, UniProt P48546).
T2 construct: expressed in transfected cells
T2 sequence (P48546 22-466): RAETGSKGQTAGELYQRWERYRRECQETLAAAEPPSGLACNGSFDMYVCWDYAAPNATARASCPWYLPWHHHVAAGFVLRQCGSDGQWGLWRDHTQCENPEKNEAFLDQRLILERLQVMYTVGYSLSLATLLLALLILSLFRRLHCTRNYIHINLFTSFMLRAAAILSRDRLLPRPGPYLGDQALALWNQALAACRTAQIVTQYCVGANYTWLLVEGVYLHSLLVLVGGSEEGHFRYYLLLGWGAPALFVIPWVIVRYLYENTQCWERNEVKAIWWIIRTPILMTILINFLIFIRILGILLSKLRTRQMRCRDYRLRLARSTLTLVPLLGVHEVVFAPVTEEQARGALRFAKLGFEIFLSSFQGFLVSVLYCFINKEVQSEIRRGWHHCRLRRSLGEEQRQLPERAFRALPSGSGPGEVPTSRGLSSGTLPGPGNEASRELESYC
Nature of the experiment: Functional cAMP formation (HTRF) in HEK-293 clonal cells expressing hGIPR, 0.1% bovine casein, without or with 1.0% human serum albumin. The experiment is classed as cell-based. To be noted: 37° C.; for EC50: read-out: hGIPR EC50, nM (SEM, n); for Emax: percent of maximal response to GIP(1-42)NH2, read-out: hGIPR Emax, % ± SEM. An outline of the steps: as §1

Experiment [1] addresses T3, human GIP receptor (hGIPR) (Homo sapiens, UniProt P48546).
T3 construct: expressed in transfected cells; crude membranes
T3 sequence (P48546 22-466): T2 sequence (P48546 22-466)
The experiment can be described thus: [125I]-GIP binding, SPA with membranes of CHO cells expressing hGIPR. To be noted: human GIPR; geometric mean (SEM, n); read-out: Binding Affinity Ki, nM (SEM, n) hGIPR. The method, then: Two methods are used for the preparation of crude cell membranes.
Method 1: Frozen cell pellets are lysed on ice in hypotonic buffer containing 50 mM Tris HCl, pH 7.5, and Roche Complete™ Protease Inhibitors with EDTA. […] The homogenate is centrifuged at 4° C. at 1100 × g for 10 minutes. The supernatant is collected and stored on ice while the pellets are resuspended in homogenization buffer and rehomogenized as described above. The homogenate is centrifuged at 1100 × g for 10 minutes. The second supernatant is combined with the first supernatant and centrifuged at 35000 × g for 1 hour at 4° C. The resulting membrane pellet is resuspended in homogenization buffer containing protease inhibitors at approximately 1 to 3 mg/mL, quick frozen in liquid nitrogen and stored as aliquots in a -80° C. freezer until use.
The homogenate is centrifuged at 4° C. at 1800 × g for 15 minutes. The supernatant is collected and stored on ice while the pellets are resuspended in homogenization buffer (without DNAse I) and rehomogenized as described above. The homogenate is centrifuged at 1800 × g for 15 minutes. The second supernatant is combined with the first supernatant and centrifuged an additional time at 1800 × g for 15 minutes. The overall supernatant is then centrifuged at 25000 × g for 30 minutes at 4° C. The resulting membrane pellet is resuspended in homogenization buffer (without DNAse I) containing protease inhibitors at approximately 1 to 3 mg/mL and stored as aliquots in a -80° C. freezer until use.
The binding buffer contains 25 mM HEPES, pH 7.4, 2.5 mM CaCl2, 1 mM MgCl2, 0.1% (w/v) bacitracin, 0.003% (w/v) TWEEN®-20, and Roche Complete™ Protease Inhibitors without EDTA. Peptides and GIP are thawed and 3 fold serially diluted in 100% DMSO (10 point concentration response curves). […] Plates are sealed and mixed on a plate shaker (setting 6) for 1 minute and read with a PerkinElmer Trilux MicroBeta® scintillation counter after 2.5 to 12 hours of incubation/settling time at room temperature.
Raw CPM data for concentration curves of peptides, Gcg, GLP-1, or GIP are converted to percent inhibition by subtracting nonspecific binding (binding in the presence of excess unlabeled Gcg, GLP-1, or GIP, respectively) from the individual CPM values and dividing by the total binding signal, also corrected by subtracting nonspecific binding. Data are analyzed using four-parameter (curve maximum, curve minimum, IC50, Hill slope) nonlinear regression routines (Genedata Screener, version 12.0.4, Genedata AG, Basal, Switzerland). […] Values for Ki are reported as the geometric mean, with error expressed as the standard error of the mean (SEM) and n is equal to the number of independent replicates (determined in assays performed on different days). Geometric Means are calculated as follows: […]
The Ki Ratio (Ki for native control peptide/Ki for test compound) at each receptor and each species is calculated. The Ki Ratio is a rapid indication of the apparent affinity of a peptide compared to the native control peptide.
n=⅟x means that only one value out of the total number of replicates (x) is used to express the mean. SEM is only calculated when n=2 or greater non-qualified results exist. Means are expressed as GeoMetric means with the standard error of the mean (SEM) and the number of replicates (n) indicated in parenthesis.

Where [2] appears, read: 0.1% bovine casein and 1.0% human serum albumin, geometric mean.
Where [3] appears, read: cAMP, 0.1% bovine casein (no human serum albumin), geometric mean.
The mark [4] stands for this setting: cAMP, 37° C., 0.1% bovine casein (no human serum albumin), geometric mean.
The mark [5] stands for this setting: cAMP, 37° C., 0.1% bovine casein and 1.0% human serum albumin, geometric mean (SEM, n).
[6] abbreviates: HEK293, cAMP, 0.1% bovine casein and 1.0% human serum albumin.
Setting [7] is: cAMP, 0.1% bovine casein and 1.0% human serum albumin, geometric mean (SEM, n).

T1 sequence (P47871 26-477): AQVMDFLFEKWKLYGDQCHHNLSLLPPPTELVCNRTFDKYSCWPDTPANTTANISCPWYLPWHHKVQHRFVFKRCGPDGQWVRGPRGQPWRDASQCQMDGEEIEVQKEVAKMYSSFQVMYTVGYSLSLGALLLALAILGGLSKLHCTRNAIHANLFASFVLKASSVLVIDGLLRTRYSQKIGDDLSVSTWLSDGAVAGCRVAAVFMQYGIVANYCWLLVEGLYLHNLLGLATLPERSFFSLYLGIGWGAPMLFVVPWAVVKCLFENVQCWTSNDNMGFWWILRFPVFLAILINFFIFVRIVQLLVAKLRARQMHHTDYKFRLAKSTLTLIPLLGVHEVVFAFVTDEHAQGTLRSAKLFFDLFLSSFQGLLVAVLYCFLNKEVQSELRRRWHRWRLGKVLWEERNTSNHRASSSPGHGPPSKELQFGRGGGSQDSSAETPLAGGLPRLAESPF
Sequence of hGLP-1R (P43220 24-463): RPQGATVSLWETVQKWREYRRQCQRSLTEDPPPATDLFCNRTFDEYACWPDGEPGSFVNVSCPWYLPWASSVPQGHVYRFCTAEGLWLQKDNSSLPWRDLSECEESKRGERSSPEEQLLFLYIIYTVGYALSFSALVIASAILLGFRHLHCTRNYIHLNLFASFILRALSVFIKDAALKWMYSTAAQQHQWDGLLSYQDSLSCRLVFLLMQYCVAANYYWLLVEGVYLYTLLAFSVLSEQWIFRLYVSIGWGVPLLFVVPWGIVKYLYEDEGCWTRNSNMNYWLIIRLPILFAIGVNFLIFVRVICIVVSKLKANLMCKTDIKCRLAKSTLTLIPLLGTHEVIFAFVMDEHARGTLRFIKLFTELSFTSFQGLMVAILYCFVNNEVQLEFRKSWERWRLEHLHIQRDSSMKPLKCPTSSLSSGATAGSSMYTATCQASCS

Take `CCCCCCCCCCCCCC(=O)N[C@@H](CCC(=O)NCCOCCOCC(=O)NCCOCCOCC(=O)NCCCC[C@H](NC(=O)CNC(=O)CNC(=O)[C@H](CCC(=O)O)NC(=O)[C@@H](NC(=O)[C@H](CC(C)C)NC(=O)[C@](C)(Cc1ccc(O)cc1)NC(=O)[C@@H](CCC(=O)O)NC(=O)[C@@H](NC(=O)[C@H](Cc1ccccc1)NC(=O)[C@H](CCC(=O)O)NC(=O)C(C)(C)NC(=O)[C@H](CCC(N)=O)NC(=O)[C@H](C)NC(=O)[C@H](CCCCNC(=O)COCCOCCNC(=O)COCCOCCNC(=O)CC[C@H](NC(=O)CCCCCCCCCCCCC)C(=O)O)NC(=O)[C@H](CCCN)NC(=O)[C@H](CC(=O)O)NC(=O)[C@H](CC(C)C)NC(=O)[C@](C)(CC(C)C)NC(=O)[C@@H](NC(=O)[C@H](CO)NC(=O)[C@H](Cc1ccncc1)NC(=O)[C@H](CC(=O)O)NC(=O)[C@H](CO)NC(=O)[C@@H](NC(=O)[C@](C)(Cc1ccccc1F)NC(=O)[C@@H](NC(=O)CNC(=O)[C@H](CCC(=O)O)NC(=O)C(C)(C)NC(=O)[C@@H](N)Cc1ccc(O)cc1)[C@@H](C)O)[C@@H](C)O)[C@@H](C)CC)[C@@H](C)CC)[C@@H](C)CC)C(=O)N[C@@H](CO)C(=O)N[C@@H](CO)C(=O)NCC(=O)N[C@@H](C)C(=O)N1CCC[C@H]1C(=O)N1CCC[C@H]1C(=O)N1CCC[C@H]1C(=O)N[C@@H](CO)C(N)=O)C(=O)O` [Example 8]: the concentration giving a half-maximal response (EC50) was 8 nM at hGLP-1R (setting [2]); above 9950 nM on hGCGR (0.1% bovine casein and 1.0% human serum albumin, 37° C., geometric mean); above 9950 nM at hGCGR (cAMP, incubated at 37° C., 0.1% bovine casein (no human serum albumin), geometric mean); 0.635 nM at hGIPR (setting [2]). The Emax on hGIPR (HEK293, 0.1% bovine casein and 1.0% human serum albumin) is 91.3 ± 3.11%. For the same compound, in experiment [1], the Ki was found to be 0.024 nM.
As to `CCCCCCCCCCCC(=O)N[C@@H](CCC(=O)NCCOCCOCC(=O)NCCOCCOCC(=O)NCCCC[C@H](NC(=O)[C@H](CCCN)NC(=O)[C@H](CC(=O)O)NC(=O)[C@H](CC(C)C)NC(=O)[C@](C)(CC(C)C)NC(=O)[C@@H](NC(=O)C(C)(C)NC(=O)[C@H](Cc1ccncc1)NC(=O)[C@H](CC(=O)O)NC(=O)[C@H](CO)NC(=O)[C@@H](NC(=O)[C@](C)(Cc1ccccc1F)NC(=O)[C@@H](NC(=O)CNC(=O)[C@H](CCC(=O)O)NC(=O)C(C)(C)NC(=O)[C@@H](N)Cc1ccc(O)cc1)[C@@H](C)O)[C@@H](C)O)[C@@H](C)CC)C(=O)N[C@@H](C)C(=O)N[C@@H](CCC(N)=O)C(=O)NC(C)(C)C(=O)N[C@@H](CCC(=O)O)C(=O)N[C@@H](Cc1ccccc1)C(=O)N[C@H](C(=O)N[C@H](CCC(=O)O)C(=O)N[C@@](C)(Cc1ccc(O)cc1)C(=O)N[C@@H](CC(C)C)C(=O)N[C@H](C(=O)N[C@@H](CCCCNC(=O)COCCOCCNC(=O)COCCOCCNC(=O)CC[C@H](NC(=O)CCCCCCCCCCC)C(=O)O)C(=O)NCC(=O)NCC(=O)N1CCC[C@H]1C(=O)N[C@@H](CO)C(=O)N[C@@H](CO)C(=O)NCC(=O)N[C@@H](C)C(=O)N1CCC[C@H]1C(=O)N1CCC[C@H]1C(=O)N1CCC[C@H]1C(=O)N[C@@H](CO)C(N)=O)[C@@H](C)CC)[C@@H](C)CC)C(=O)O` [Example 334], the Emax was 105% at hGLP-1R (0.1% bovine casein and 1.0% human serum albumin); 89% at hGIPR (setting [6]). Also, the EC50 on hGLP-1R (setting [3]) was 0.131 nM; at hGCGR (setting [4]), above 9950 nM; at hGCGR (setting [5]) it was above 9950 nM; on hGIPR (setting [3]) it was 0.00987 nM. The Ki in experiment [1] worked out at 0.0195 nM.
For `CC[C@H](C)[C@H](NC(=O)[C@H](CC(C)C)NC(=O)[C@](C)(Cc1ccc(O)cc1)NC(=O)[C@H](CCCCNC(=O)COCCOCCNC(=O)COCCOCCNC(=O)COCCOCCNC(=O)CC[C@H](NC(=O)CCCCCCCCCCCCC(=O)O)C(=O)O)NC(=O)[C@@H](NC(=O)[C@H](Cc1ccccc1)NC(=O)[C@H](CCCN)NC(=O)C(C)(C)NC(=O)[C@H](CCC(N)=O)NC(=O)[C@H](C)NC(=O)[C@H](CCC(N)=O)NC(=O)[C@H](CCCN)NC(=O)[C@H](CC(=O)O)NC(=O)[C@H](CC(C)C)NC(=O)[C@](C)(CC(C)C)NC(=O)[C@@H](NC(=O)C(C)(C)NC(=O)[C@H](Cc1ccncc1)NC(=O)[C@H](CC(=O)O)NC(=O)[C@H](CO)NC(=O)[C@@H](NC(=O)[C@](C)(Cc1ccccc1F)NC(=O)[C@@H](NC(=O)CNC(=O)[C@H](CCC(=O)O)NC(=O)C(C)(C)NC(=O)[C@@H](N)Cc1ccc(O)cc1)[C@@H](C)O)[C@@H](C)O)[C@@H](C)CC)[C@@H](C)CC)C(=O)N[C@@H](CCCCNC(=O)COCCOCCNC(=O)COCCOCCNC(=O)COCCOCCNC(=O)CC[C@H](NC(=O)CCCCCCCCCCCCC(=O)O)C(=O)O)C(=O)NCC(=O)NCC(=O)N1CCC[C@H]1C(=O)N[C@@H](CO)C(=O)N[C@@H](CO)C(=O)NCC(=O)N[C@@H](C)C(=O)N1CCC[C@H]1C(=O)N1CCC[C@H]1C(=O)N1CCC[C@H]1C(=O)N[C@@H](CO)C(N)=O` [Example 476], the Emax was 114% on hGLP-1R (0.1% bovine casein, arithmetic mean) and 81.8% on hGIPR (setting [6]). Besides, the EC50 on hGLP-1R (setting [3]) is 0.117 nM; at hGLP-1R (setting [7]), 1.5 nM; on hGCGR (setting [4]) it was above 9950 nM; at hGCGR (setting [5]), above 9950 nM; on hGIPR (setting [3]), 0.00886 nM; on hGIPR (setting [7]), 0.154 nM. Moreover, in experiment [1], the inhibition constant (Ki) came out at 0.0351 nM.
